In US12053529B2, “Amino-reactive positively charged ATRP initiators that maintain their positive charge during synthesis of biomacro-initiators” (Carnegie Mellon University, priority 2018, dated 2024):

What was measured:
[1] = molecular target: acetylcholinesterase (AChE) from Electrophorus electricus, positive initiator (+) (Electrophorus electricus, UniProt O42275); experiment: Michaelis-Menten kinetics, acetylthiocholine iodide hydrolysis, AChE-positive initiator; type: biochemical, Electrophorus electricus (electric eel); settings: AChE-positive initiator vs AChE-neutral initiator
Description: (§1) CT and Lysozyme were used as received. AChE and Uricase were dialyzed in 25 mM sodium phosphate (pH 7.0) using a 25 kDa molecular weight cutoff dialysis tube in a refrigerator for 24 hours and then lyophilized. Copper (II) chloride, sodium ascorbate, 1,1,4,7,10,10-hexamethyltriethylenetetramine (HMTETA), 2-bromo-2-methylpropionyl bromide, 3-(dimethylamino)-1-propylamine, N,N′-diisopropylcarbodimine, fluorescamine, acetylthiocholine iodide, 5,5′-dithiobis(2-nitrobenzoic acid) (DTNB) were purchased from Sigma Aldrich. 4-bromobutyric acid and N-hydroxysuccinimide were purchased from TCI USA (Portland, OR). Micro BCA assay kit was purchased from Thermo Fisher Scientific.
(§2) AChE: 100 μL of NHS-functionalized ATRP initiator solution in DMSO (12.7 μmol, 4.3 mg for neutral and 5.5 mg for positive initiator, respectively) was added to AChE solution (7 mg of AChE in 10 mL of 100 mM phosphate (pH 8.0)) and stirred at room temperature for 2 hours. […] The concentration of AChE initiator conjugates was determined using a Micro BCA Assay Kit.
AChE: Acetylthiocholine iodide (0-100 μL of 10 mM in 100 mM sodium phosphate buffer (pH 7.4)) and 10 μL of DTNB solution (50 mM in DMSO) was mixed with 100 mM sodium phosphate (980-880 μL, pH 7.4). […] Michaelis-Menten parameters were determined by nonlinear curve fitting of initial rate versus substrate concentration plots using Prism 7 software (GraphPad).

[2] = molecular target: acetylcholinesterase (AChE) from Electrophorus electricus, neutral initiator (N)-pSMA (Electrophorus electricus, UniProt O42275); experiment: Michaelis-Menten kinetics, acetylthiocholine iodide hydrolysis, AChE (N)-pSMA; type: biochemical, Electrophorus electricus (electric eel); settings: pH 7.4, 37° C., DTNB
Description: as §1, §2
CT-pCBMA and pSMA conjugate synthesis: A solution of monomer (230 mg for CBMA and 246 mg for SMA, 1.0 mmol respectively) and CT-initiator (23 mg for neutral and 25 mg for positive initiator, 10 μmol of initiator) in 100 mM sodium phosphate (20 mL, pH 7) was sealed and bubbled with nitrogen gas in an ice bath for 30 minutes. […] Conjugate CT content was determined by BCA assay as described elsewhere (Lee et al. 2005, supra). […]
AChE: Acetylthiocholine iodide (0-100 μL of 10 mM in 100 mM sodium phosphate buffer (pH 7.4)) and 10 μL of DTNB solution (50 mM in DMSO) was mixed with 100 mM sodium phosphate (980-880 μL, pH 7.4). […] The initial rate was monitored by recording the increasing in absorbance as 412 nm using an UV-VIS absorbance spectrometer with a temperature controlled cell folder at 37° C. Michaelis-Menten parameters were determined by nonlinear curve fitting of initial rate versus substrate concentration plots using Prism 7 software (GraphPad).

[3] = test system: avidin, neutral initiator (N)-pCBMA; experiment: biotin binding rate, avidin (N)-pCBMA
Source text: (§3) Avidin: Avidin (Avi) is a tetrameric protein (homo-4-mer) that is approximately 66 kDa in its tetrameric form and is found in the egg whites of birds, reptiles, and amphibians. Its highly specific activity arises from binding strongly to biotin and this binding event is one of the strongest noncovalent interactions known, making avidin extremely useful for biochemical assays/probes and protein purification chemistries. Each sub-unit of avidin can bind to one biotin molecule. In agreement with CT and Lyz, the number of initiator modifications when using the positive initiator was less than that achieved with neutral initiator (4.3 versus 7.9). The activities of avidin samples were measured next using two different techniques (TABLE 6). Biotin binding rates were determined kinetically and total equilibrium biotin binding were determined spectophotometrically using 4′-hydroxyazobenzene-2-carboxylic acid (HABA) dye. Since the avidin-biotin binding is so strong, the displacement of HABA by biotin in the active site can be measured and the amount of bound biotin can be determined by the decrease in absorbance at 500 nm. The biotin binding rate of Avi-neutral initiator was decreased to 0.48 s^−1 from 105.2 s^−1 for native avidin.

avidin, native = experiment: biotin binding rate, native avidin
Source text: as §3

[4] = test system: avidin, positive initiator (+)-pCBMA; experiment: biotin binding rate, avidin (+)-pCBMA
Source text: as §3

[5] = test system: avidin, positive initiator (+); experiment: biotin binding rate, avidin-positive initiator
Source text: as §3

Chain of acetylcholinesterase (AChE) from Electrophorus electricus, neutral initiator (N)-pSMA (O42275 24-633): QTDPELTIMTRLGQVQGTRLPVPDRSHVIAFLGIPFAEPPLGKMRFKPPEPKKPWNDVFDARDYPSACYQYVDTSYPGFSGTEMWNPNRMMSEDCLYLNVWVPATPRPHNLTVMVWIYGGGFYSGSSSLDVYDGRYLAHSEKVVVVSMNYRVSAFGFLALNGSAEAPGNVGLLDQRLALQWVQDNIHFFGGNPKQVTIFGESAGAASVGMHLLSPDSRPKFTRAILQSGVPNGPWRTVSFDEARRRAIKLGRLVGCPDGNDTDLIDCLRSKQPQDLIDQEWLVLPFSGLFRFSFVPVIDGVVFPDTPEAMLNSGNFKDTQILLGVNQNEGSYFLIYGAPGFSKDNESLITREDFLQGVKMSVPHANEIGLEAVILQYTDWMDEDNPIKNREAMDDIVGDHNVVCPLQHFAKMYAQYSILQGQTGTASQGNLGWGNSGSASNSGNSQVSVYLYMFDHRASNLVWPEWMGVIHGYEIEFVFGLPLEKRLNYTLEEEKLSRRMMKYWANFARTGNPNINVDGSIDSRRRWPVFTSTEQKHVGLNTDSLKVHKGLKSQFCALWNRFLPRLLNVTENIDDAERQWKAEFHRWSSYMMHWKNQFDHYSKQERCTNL
Chain of acetylcholinesterase (AChE) from Electrophorus electricus, positive initiator (+) (O42275 24-633): as above

Compound	KM increase versus AChE-neutral initiator [1]	KM [2]	kcat [2]	kcat/KM [2]	biotin binding rate [3] [s⁻¹]	biotin binding rate (avidin, native) [s⁻¹]	biotin binding rate [4] [s⁻¹]	increase in biotin binding rate compared to Avi-neutral initiator ([5]; Avi-positive initiator vs Avi-neutral initiator) [fold]	biotin binding rate ([5]; avidin (+)) [s⁻¹]
CC(=O)SCC[N+](C)(C)C.[I-] [acetylthiocholine iodide]	about 2.4 ×	undetectable	undetectable	undetectable	–	–	–	–	–
O=C(O)CCCC[C@@H]1SC[C@@H]2NC(=O)N[C@@H]21 [biotin]	–	–	–	–	0.23 ± 0.07	92.5 ± 14.1	1.64 ± 0.08	1.7	1.69 ± 0.04
